# In publication PMC6547740, “Potent and specific MTH1 inhibitors targeting gastric cancer” (Cell Death & Disease, 2019):
# How the values were obtained:
# [1] = molecular target: T1, OGG1 (Homo sapiens, UniProt O15527); assay: Cellular thermal shift assay (CETSA), OGG1; type: binding; conditions: MGC-803 cells, 50 µM compound, heated 10 min from 43 to 61 °C
# T1 construct: endogenous in cells; host or cells: MGC-803 (human gastric cancer cell line)
# Description: (§1) Cellular thermal shift assay (CETSA), also known as the target engagement assay was one-way to detect the intracellular interaction ability of compounds with its specific target. Firstly, cells were seeded into T75 culture flasks and cultured overnight. Then, the cells were treated with cell media containing 1‰ DMSO as blank control and candidate compounds for 3–5 h. Next, the cells were collected by centrifugation and resuspended by PBS, then the cells were aliquoted into 7 PCR tubes and heated using PCR instrument for 10 min from 43 to 61 °C. After that, cells were lysed using liquid nitrogen and three repeated cycles of freeze-thawing. Then, samples were centrifuged at 12,000 × g for 20 min at 4 °C. Supernatants were denatured at 100 °C for 10 min and kept at −20 °C until Western Blot analysis.
# [2] = tested on: HL-7702 cells; assay: MTT cell viability, HL-7702; type: cell-based; conditions: Homo sapiens, L02, normal liver cell line, 72 h
# Description: (§2) The cell viability was determined by 3-(4,5-dimethylthiazol-2-yl)-2,5-diphenyltetrazolium bromide (MTT) assay, according to the manufacturer’s instructions. 1 day before treatment, cells were seeded into 96-well plates at a concentration of 2–5 × 10^3 cells per well, followed by treatment with fresh medium containing serial dilutions of candidate compounds for 48 or 72 h, 20 μL of MTT solution (5 mg/mL in PBS) was then added to each well. After treatment, the plates were incubated at 37 °C for another 4 h. Subsequently, the MTT solution was removed and 150 μL of DMSO was added to each well for 10 min, and then the plates were shaken to dissolve the dark blue crystal (formazan), the absorbance was detected at 570 nm using a BioTek microplate reader. The data were analyzed using SPSS 20 software.
# [3] = tested on: EC9706 cells; assay: MTT cell viability, EC9706; type: cell-based; conditions: Homo sapiens, esophageal cancer cell line, 72 h
# Description: as §2
# [4] = tested on: HGC-27 cells; assay: MTT cell viability, HGC-27; type: cell-based; conditions: Homo sapiens, gastric cancer cell line, 72 h
# Description: as §2
# [5] = tested on: SGC-7901 cells; assay: MTT cell viability, SGC-7901; type: cell-based; conditions: Homo sapiens, gastric cancer cell line, 72 h
# Description: as §2
# [6] = tested on: B16-F10 cells; assay: MTT cell viability, B16-F10; type: cell-based; conditions: Mus musculus, 72 h
# Description: as §2
# [7] = tested on: MGC-803 cells-derived xenograft; assay: MGC-803 cells-derived xenograft model; type: in vivo, BALB/c nude mice; parameters: average tumor volumes in comparison with oil treatment group: scale not given here; conditions: 40 mg/kg, gavage once a day for 25 days
# Description: All animal experiments were conducted according to the guidelines of the Institutional Animal Care and Use Committee of Zhengzhou University. Four or five-week-old female BALB/c nude mice, weighing 18–21 g were purchased from Hunan Slack Scene of Laboratory Animal Company, LTD (Hunan, China). They received abundant food and water and were housed in a laminar flow under sterilized condition. 200 µL MGC-803 cells at the concentration of 5 × 10^7/mL were injected into the right scapular region of the mice. When most of the tumor volumes reached 100 mm^3, mice were randomly divided into oil (solvent) group and MI-743(40 mg/kg) treatment group. Then, they received gavage daily for 25 days. The body weight was weighed every 2 days and the tumor volumes were measured every 4 days. At the 25th day, the tumors were surgically removed and weighed. The tumor size was determined by vernier caliper measurements and the tumor and major organs were fixed in 4% buffered paraformaldehyde and paraffin-embedded for hematoxylin and eosin (HE) staining, immunohistochemistry (IHC) and TUNEL assay.
# [8] = tested on: MGC-803 cells; assay: Alkaline comet assay, MGC-803; type: cell-based, human; conditions: MGC-803, 10 µM, 48 h, compared with DMSO
# Description: MGC-803 and HGC-27 cells were seeded into 6-well plates(1.5 × 10^5 cells/well) and cultured overnight. For siRNA experiments, the control siRNA and MTH1 siRNA were transfected into cells. For compounds experiments, cells were treated with candidate compounds MI-743 for 48 h before collection. For the H2O2 control, cells were treated with 100 µM H2O2 for 10 min. Subsequently, cells were harvested, washed and resuspended with PBS. After counting, cells were mixed with 1.2% low melting-temperature agarose at 37 °C. The mixtures were layered onto pre-warmed glass slides, which were pre-coated with 1% agarose. After adding coverslips, slides were kept in 4 °C immediately for 10-15 min, followed by immersing in pre-chilled lysis buffer(2.5 M NaCl, 0.1 M EDTA, 10 mM Tris-HCL pH 7.7, 1% Triton X-100, 1% DMSO)for 5-8 h. Then, slides were washed three times with enzyme reaction buffer (40 mM HEPES pH 8.0, 0.1 M KCl, 0.5 mM EDTA and 0.2 mg/mL BSA) and incubated for another 45 min in pre-chilled alkaline electrophoresis buffer (50 mM NaOH, 1 mM EDTA, 1% DMSO, pH12.8). After electrophoresis for 30 min at 25 V, slides were neutralized with 0.4 M Tris-HCl pH 7.0 for 1 h and stained with 1‰ EB for 5 min. At last, images were acquired using fluorescence microscope and analysised by CometScore software.
# [9] = tested on: MGC-803 cells; assay: Western blot of DNA damage response markers, MGC-803; type: cell-based, human; conditions: MGC-803, 1-12 µM 48 h or 12 µM 12-48 h, dose and time-dependently, vs DMSO
# Description: MGC-803, HGC-27 and GES-1 cells were seeded into 100mm^2 plastic dishes(1 × 10^5 cells/well) and incubated overnight prior to the addition of compound MI-743 at 1, 2, 4, 8 and 12 µM for 48 h or compound MI-743 at 12 µM for 12, 24, 36 and 48 h, respectively. After treatment, the cells were harvested and lysed with RIPA cell lysis buffer, containing protease inhibitor cocktail. Then, the cells were centrifuged at 12,000 × g for 20 min at 4 °C. The supernatant were collected and the concentration was determined by a Bicinchoninic Acid (BCA) Protein Assay kit, denatured at 100 °C for 10 min, separated by SDS−PAGE and transferred to 0.22 μm nitrocellulose membranes. After blocking by PBS containing 5% skim milk for 2 h at room temperature, the membranes were probed with the appropriate primary antibodies (1:500~1:1000) at 4 °C overnight, followed by the treatment of horseradish-peroxidase-conjugated secondary antibody (1:10000) at room temperature for 2 h. Subsequently, the membranes were washed with PBST, examined by enhanced chemiluminescence and the data was determined using Image J software.
# [10] = molecular target: MTH1 (Homo sapiens, UniProt P36639); assay: Cellular thermal shift assay (CETSA), MTH1; type: binding; parameters: endogenous in cells; host or cells: MGC-803 (human gastric cancer cell line); conditions: MGC-803 cells, 50 µM compound, heated 10 min from 43 to 61 °C, western blot
# Description: as §1
# T1 sequence (O15527 whole entry): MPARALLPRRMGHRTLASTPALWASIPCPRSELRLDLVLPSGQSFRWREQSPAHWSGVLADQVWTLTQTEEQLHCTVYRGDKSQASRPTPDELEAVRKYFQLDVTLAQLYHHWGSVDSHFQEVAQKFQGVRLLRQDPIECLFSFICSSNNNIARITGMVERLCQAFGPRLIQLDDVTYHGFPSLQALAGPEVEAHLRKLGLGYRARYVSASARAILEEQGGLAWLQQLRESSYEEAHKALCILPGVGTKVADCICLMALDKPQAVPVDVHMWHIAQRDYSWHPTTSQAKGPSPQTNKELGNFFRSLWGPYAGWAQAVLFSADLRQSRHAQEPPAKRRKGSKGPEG
smiles,measurement,setting,value
"C#CCSc1nc(NNC(N)=S)c(C#N)c(-c2ccc3oc(=O)ccc3c2)n1 [MI-743, 2-(5-cyano-6-(2-oxo-2H-chromen-6-yl)-2-(prop-2-yn-1-ylthio)pyrimidin-4-yl)hydrazine-1-carbothioamide]",temperature at which OGG1 became unstable,[1],49 °C
same,IC50,[2],20.1 ± 1.76 µM
same,IC50,[3],8.35 ± 0.92 µM
same,IC50,[4],1.14 ± 0.16 µM
same,IC50,[5],10.4 ± 1.01 µM
same,IC50,[6],8.08 ± 0.91 µM
same,average tumor volumes in comparison with oil treatment group,[7],33.54%
same,expression levels of ATMpS1981 and 8-oxo-dG in tumor tissue (immunohistochemistry),[7]; vs oil group,sharply increased
same,comet tail moment,[8],significantly elevated
same,"expression levels of p53pS15, ATMpS1981 and p21",[9],significantly increased
same,incubation temperature until which MTH1 was stable,[10],61 °C
